SMILES strings stand for the structures.

A short description of this series: physchem. To be noted: octan-1-ol/water, pH 7.4.
As usually defined, the logD is lipophilicity at a set pH, counting ionised and neutral species. A low value points to lower lipophilicity. `CCC[C@@H](CN1CCCC1)N(C)C(=O)Cc1ccc(Cl)c(Cl)c1`: the logD came to 2.27.

With `CC(C)[C@@H](CN1CCCCC1)N(C)C(=O)Cc1ccc(Cl)c(Cl)c1`, the logD came out at 2.87.

For the compound `COc1ccc(C(CN2CCCC2)N(C)C(=O)Cc2ccc(Cl)c(Cl)c2)c(OC)c1` (centres undefined), the logD came out at 3.07.

`CCCCCCN1CC[C@]2(C)c3cc(O)ccc3CC1[C@@H]2C` showed a pH-dependent lipophilicity (logD) of 2.5.

For `CC(O)C(C)OC(=O)[C@@H]1CC2c3cccc4c3c(cn4C(C)C)CC2N(C)C1` (some centres undefined), the pH-dependent lipophilicity (logD) is 2.8.

`CCOC(=O)C1(c2cccc(O)c2)CCCN(CC2CC2)C1` (centres undefined): the logD was 1.89.

`Cc1ccc(CN2[C@@H]3CC[C@H]2C[C@@H](Oc2cccc(C(N)=O)c2)C3)s1`: the logD was determined as 2.39.

For `CN(C)C(=O)N[C@H]1CC[C@H](CN2[C@@H]3CC[C@H]2C[C@@H](Oc2cccc(C(N)=O)c2)C3)CC1`, the logD is -0.07.

In turn, `NC(=O)c1cccc(S[C@H]2C[C@H]3CC[C@@H](C2)N3Cc2ccccc2)c1` had a logD of 2.22.

`NC(=O)c1cc(F)cc(O[C@H]2C[C@H]3CC[C@@H](C2)N3Cc2ccccc2)c1`: the logD came out at 2.14.

The compound `Cc1cc(O[C@H]2C[C@H]3CC[C@@H](C2)N3Cc2ccccc2)cc(C(N)=O)c1` had a log distribution coefficient (logD) of 2.08.

Compound `Cc1cc(C(N)=O)ccc1O[C@H]1C[C@H]2CC[C@@H](C1)N2Cc1ccccc1` gave a logD of 2.23.

`CNC(=O)c1cccc(O[C@H]2C[C@H]3CC[C@@H](C2)N3Cc2ccccc2)c1` displayed a logD of 1.93.

`Oc1cccc(O[C@H]2C[C@H]3CC[C@@H](C2)N3Cc2ccccc2)c1`: the pH-dependent lipophilicity (logD) worked out at 2.3.

Compound `Cc1ccc(CN2[C@@H]3CC[C@H]2C[C@H](Oc2cccc(C(N)=O)c2)C3)s1` registered a logD of 2.44.

On to `NC(=O)c1cccc(O[C@@H]2C[C@H]3CC[C@@H](C2)N3CCc2ccccc2)c1`, for which the logD turned out to be 2.

Take `CCN(CC)C(=O)c1ccc(C(=C2CCNCC2)c2ccc(Cl)c(Cl)c2)cc1`: the pH-dependent lipophilicity (logD) is 2.4.

As to `Cc1ccnc(NCc2ccc(Cl)cc2)c1`, the pH-dependent lipophilicity (logD) was 3.6.

On to `COc1ccccc1Cn1c(C)nc2ccccc21`, for which the log distribution coefficient (logD) is 3.47.

The compound `CC(=O)NC1CC2CCCC(C1)N2C(=O)Nc1ccc(Cl)c(C(F)(F)F)c1` (centres undefined) had a log distribution coefficient (logD) of 2.79.

Compound `CCN1CCN(C(=O)c2cc3cc(F)ccc3[nH]2)CC1` returned a log distribution coefficient (logD) of 2.28.

Compound `Nc1ccc2nc(-c3ccc(O)cc3)sc2c1` came in with a pH-dependent lipophilicity (logD) of 3.1.

Turning to `COc1cccc(COCC(O)CN2CCC(C(N)=O)CC2)c1` (centres undefined), the pH-dependent lipophilicity (logD) is -0.5.

In turn, `CC(=O)Nc1ccc(S(=O)(=O)Nc2ccc(Cc3ccncc3)cc2)cc1` yielded a logD of 2.8.

`CC(CC(=O)NCc1ccccc1)C1CCCO1` (centres undefined): the logD was 2.1.

The compound `Cc1cc(C)n(-c2cccc(Cl)c2C#N)n1` returned a logD of 3.

Turning to `C1CCC(NC2CCCCC2)CC1`, the pH-dependent lipophilicity (logD) is -0.38.

Compound `O=c1cc(O)oc2c1c(=O)n(Cc1ccccc1)c1ccccc21` had a logD of 1.97.

As for `CCCCCc1ccc(-c2nnc(N)s2)cc1`, the pH-dependent lipophilicity (logD) was found to be 4.13.

In the case of `COc1ccc(-n2cnc3cc(NS(=O)(=O)c4ccccc4)ccc32)cc1`, the logD came out at 3.7.

`Nc1ccc(C2(c3ccc(N)cc3)CCCCC2)cc1` displayed a log distribution coefficient (logD) of 3.2.

`CC1(C)CC(=O)c2c(nc3ccccc3c2N)C1` gave a pH-dependent lipophilicity (logD) of 3.

With `CCOC(=O)c1c(C)n(Cc2ccco2)c2ccc(O)cc12`, the pH-dependent lipophilicity (logD) was determined as 3.5.

`CCc1c(C(=O)C(N)=O)c2c(OCC(N)=O)cccc2n1Cc1ccccc1`: the logD was determined as 2.1.

Regarding `Nc1ncnc2oc(-c3ccoc3)c(-c3ccco3)c12`, the logD was determined as 3.1.

On to `Nc1nnc(Cc2ccc(Cl)cc2)s1`, for which the pH-dependent lipophilicity (logD) is 2.34.

`Cc1ccc(CN2C(=O)CCSc3ccc(Cl)cc32)cc1`: the logD turned out to be 3.7.

`CC(C)(C)c1ccc(C2=NC(=O)C(CC(=O)O)S2)cc1` (centres undefined) returned a pH-dependent lipophilicity (logD) of -0.1.

For the compound `CCCNC(=O)c1nnc2c(-c3cncc(C(=O)N4CCC4)c3)cccc2c1N`, the logD stood at 2.79.

Compound `CC(C)[C@@H]1N=C(c2ccccc2)c2ccccc2NC1=O` showed a log distribution coefficient (logD) of 3.05.

`Cn1c(=O)n(Cc2ccc(Br)cc2)c2ccccc21` had a pH-dependent lipophilicity (logD) of 2.81.

Compound `Cc1ccc(-c2nnc(O)c3ccccc23)c(C)c1` gave a logD of 3.41.

Consider `N#Cc1cccc(-c2ccc(C3(CNC(=O)Nc4cc(Cl)cc(Cl)c4)CCN(CC4CC4)CC3)cc2)c1`, for which the logD turned out to be 3.37.

As to `O=C(O)CCC(=O)N1CCC(c2nc(-c3cccs3)no2)CC1`, the logD was -1.27.

Consider `CCCNC(=O)c1nnc2c(-c3cnc(OC)nc3OC)cccc2c1N`, for which the logD came to 3.26.

Turning to `CCCNC(=O)c1nnc2c(-c3cnccc3OC)cccc2c1N`, the logD is 2.83.

Compound `CCCNC(=O)c1nnc2c(-c3cc(C)ccc3OC)cccc2c1N` showed a pH-dependent lipophilicity (logD) of 3.99.

As for `Cc1nc(-c2ccc(CN3CCC(n4c(=O)[nH]c5ccccc54)CC3)cc2)c(-c2ccccc2)[nH]c1=O`, the logD worked out at 3.8.

`Oc1ccc(Br)c2ccccc12` returned a logD of 4.3.

Regarding `O=C(Cc1cccc2ccccc12)Nc1ccccc1`, the log distribution coefficient (logD) came out at 3.9.

`Cc1ccc(-c2cc(C(=O)N3CCOCC3)c3cc(C)ccc3n2)cc1` yielded a log distribution coefficient (logD) of 3.6.

For the compound `CC(C)C1NCCc2c1sc1ccccc21` (centres undefined), the logD was 2.8.

`O=C1O[C@]2(CN3CCC2CC3)CN1c1ccc(Br)s1` gave a logD of 2.

`CCN(CC)C(=O)c1ccc([C@H](c2cccc(NC(=O)C3CC3)c2)N2CCN(Cc3ccc(F)cc3)CC2)cc1` had a log distribution coefficient (logD) of 3.99.

The compound `CN(CCO)C(=O)c1ccc([C@H](c2cccc(NC(=O)C3CC3)c2)N2CCN(Cc3ccc(F)cc3)CC2)cc1` registered a pH-dependent lipophilicity (logD) of 3.38.

As for `O=C(Nc1cccc([C@@H](c2ccc(C(=O)N3CCC3)cc2)N2CCN(Cc3ccc(F)cc3)CC2)c1)C1CC1`, the logD came to 3.58.

The compound `CCN(C)C(=O)c1ccc([C@H](c2cccc(NC(=O)C3CCC3)c2)N2CCN(Cc3cccnc3)CC2)cc1` displayed a logD of 3.27.

With `CCN(CC)C(=O)c1ccc([C@H](c2cccc(NC(=O)C3CC3)c2)N2CCN(CCOC)CC2)cc1`, the logD is 2.35.

The compound `CCOC(=O)Nc1cccc([C@@H](c2ccc(C(=O)N(C)CC)cc2)N2CCN(Cc3nc[nH]c3C)CC2)c1` yielded a logD of 2.32.

`CCOC(=O)Nc1cccc([C@@H](c2ccc(C(=O)N(C)CC)cc2)N2CCN(Cc3c[nH]c(C)n3)CC2)c1` gave a logD of 2.11.

`CCOC(=O)Nc1cccc([C@@H](c2ccc(C(=O)N3CCC3)cc2)N2CCN(Cc3cccnc3)CC2)c1` yielded a logD of 3.02.

In turn, `CNC(=O)c1ccc(Oc2ccc(C#C[C@]3(O)CN4CCC3CC4)cc2)cc1` had a log distribution coefficient (logD) of 1.99.

In the case of `CCN(C)C(=O)c1ccc(C(=C2CCN(Cc3ccc(F)cc3)CC2)c2ccccc2NC(C)=O)cc1`, the logD was 2.79.

`O=C(c1ccc(C(=C2CCN(Cc3cscn3)CC2)c2cccc3cccnc23)cc1)N1CCCC1` gave a logD of 2.75.

`CN(C)C(=O)c1ccc(C(=C2CCN(Cc3cscn3)CC2)c2cccc3cccnc23)cc1` gave a pH-dependent lipophilicity (logD) of 2.3.

In the case of `O=C(c1ccc(C(=C2CCN(Cc3cscn3)CC2)c2cccc3cccnc23)cc1)N1CCOCC1`, the logD stood at 2.12.

`CN1CCN(C(=O)c2ccc(C(=C3CCN(Cc4cscn4)CC3)c3cccc4cccnc34)cc2)CC1` showed a logD of 1.98.

`O=C(c1ccc(C(=C2CCN(Cc3cscn3)CC2)c2cccc3cccnc23)cc1)N1CCC(O)CC1` registered a log distribution coefficient (logD) of 1.89.

On to `O=C(N[C@H]1CN2CCC1CC2)c1ccc(-c2ccccc2)s1`, for which the logD was 1.9.

`C[C@@H]1CN(C(=O)OC(C)(C)C)CCN1c1ncc(OCc2ccc(S(C)(=O)=O)cc2)cn1` gave a logD of 3.6.

On to `CC(C)(C)OC(=O)N1CCN(c2ncc(OCc3ccncc3C#N)cn2)CC1`, for which the logD came out at 2.81.

In turn, `Nc1nc(Nc2ccc3nc(-c4ccc(F)cc4)cc(N)c3c2)cc(-c2cccc(Cl)c2)n1` gave a pH-dependent lipophilicity (logD) of 2.5.

Compound `CN1Cc2ccccc2C(c2ccc(Cl)cc2)C1` (centres undefined) had a log distribution coefficient (logD) of 3.64.

`O=C(NCC1CCOCC1)c1nc(OS(=O)(=O)CCC(F)(F)F)ccc1NC(=O)c1ccc(Cn2ccnn2)c2ccccc12` gave a logD of 4.2.

In turn, `O=C(NCC1CCOCC1)c1ncccc1NC(=O)c1cccc2ccccc12` registered a logD of 4.4.

For `CN1CC=CCC(c2ccc(Cl)c(Cl)c2)C1` (centres undefined), the logD is 3.32.

`Clc1ccc(C2CC=CCNC2)cc1Cl` (centres undefined) had a logD of 1.86.

In turn, `Clc1ccc([C@H]2CC=CCNC2)cc1Cl` showed a logD of 1.95.

On to `CCOc1ccc(-n2c(CC)nc3ccccc3c2=O)cc1`, for which the logD worked out at 3.27.

In the case of `CCC(CO)NCCNC(CC)CO` (centres undefined), the pH-dependent lipophilicity (logD) is -1.42.

As to `COC(=O)N1CCN(C(=O)Cc2ccc(Cl)c(Cl)c2)[C@H](CN2CCCC2)C1`, the logD was 2.05.

For the compound `Oc1cc(Cl)cc(Cl)c1`, the log distribution coefficient (logD) amounted to 3.58.

As to `CN(C(=O)Cc1ccc(Cl)c(Cl)c1)C(CN1CCCC1)c1ccccc1` (centres undefined), the logD amounted to 3.38.

As to `CN1CCC(C#N)(c2cccc3ccccc23)CC1`, the logD was found to be 2.73.

As for `O=C1CC(c2ccc(O)cc2)Oc2cc(O)cc(O)c21` (centres undefined), the logD was 2.6.

Compound `COc1cc(C(=O)N2CC[C@](CCN3CCC(C(N)=O)(c4ccccc4)CC3)(c3ccc(Cl)c(Cl)c3)C2)cc(OC)c1OC` showed a logD of 3.23.

`CCCCCCCCCC(=O)N[C@@H](Cc1c[nH]c2ccccc12)C(=O)N[C@H](CC(N)=O)C(=O)N[C@@H](CC(=O)O)C(=O)N[C@@H]1C(=O)NCC(=O)N[C@@H](CCCN)C(=O)N[C@@H](CC(=O)O)C(=O)N[C@H](C)C(=O)N[C@@H](CC(=O)O)C(=O)NCC(=O)N[C@H](CO)C(=O)N[C@@H]([C@H](C)CC(=O)O)C(=O)N[C@@H](CC(=O)c2ccccc2N)C(=O)O[C@@H]1C` displayed a logD of -0.94.

`CNC1=Nc2ncccc2C(c2ccns2)=NC1c1cccs1` (centres undefined) had a logD of 2.15.

Compound `CCNC1=Nc2ccccc2C(c2ccccc2)=NC1c1cccs1` (centres undefined) showed a logD of 3.98.

Compound `CNC1=Nc2ncccc2C(c2ccco2)=NC1c1cccs1` (centres undefined) gave a logD of 1.85.

For the compound `CNC(=O)c1ccc(Nc2nccc(-c3cnc(C4CC4)n3C(C)C)n2)cc1`, the logD was found to be 2.77.

For `Cc1cc(=O)[nH]c2sc(C(=O)c3ccc(Br)cc3)c(N)c12`, the pH-dependent lipophilicity (logD) was 2.57.

For the compound `COC(=O)N1CCN(C(=O)Cc2ccc(Cl)c(Cl)c2)[C@@H](CN2CCCC2)C1`, the logD worked out at 1.97.

`CN(C)CC/C=C1\c2ccccc2Sc2ccc(Cl)cc21`: the pH-dependent lipophilicity (logD) came to 3.42.
